Data taken from patent US20260124226A1 (priority 2023, published 2026).
pEC50: −log10 of the molar value. Like-named read-outs stand apart in the source and are kept apart here.

How the values were obtained:
VEEV = assay: microbe, parasite or virus in culture; format: cell-based, Venezuelan equine encephalitis virus; conditions: Venezuelan equine encephalitis virus
EEEV = assay: microbe, parasite or virus in culture; format: cell-based, Eastern equine encephalitis virus
Heartland virus = assay: microbe, parasite or virus in culture; format: cell-based; conditions: Vero
La Crosse virus = assay: microbe, parasite or virus in culture; format: cell-based
Marpol virus = assay: organism not typed; format: cell-based
Punta Toro virus = assay: microbe, parasite or virus in culture; format: cell-based
[1] = system: Severe fever thrombocytopenia syndrome virus; assay: organism not typed; format: cell-based; conditions: Vero
Lassa fever virus = assay: organism not typed; format: cell-based; conditions: Vero
Junin virus = assay: microbe, parasite or virus in culture; format: cell-based; conditions: for pEC50: Junin virus strain Candid #1, Vero cells
[2] = system: Lymphocytic choriomeningitis virus; assay: microbe, parasite or virus in culture; format: cell-based; conditions: Mammarenavirus choriomeningitidis, Vero
Pichinde virus = assay: microbe, parasite or virus in culture; format: cell-based; conditions: Vero
Tacaribe virus = assay: microbe, parasite or virus in culture; format: cell-based; conditions: for pEC50: Tacaribe virus strain TRVL 11573, Vero cells
Influenza A H1N1 = assay: microbe, parasite or virus in culture; format: cell-based, influenza A virus; conditions: Influenza A virus, H1N1, MDCK
Flu A H3N2 = assay: microbe, parasite or virus in culture; format: cell-based, influenza A virus; conditions: Influenza A virus, H3N2, MDCK
Flu A H5N1 (Low Path) = assay: microbe, parasite or virus in culture; format: cell-based, influenza A virus; conditions: Influenza A virus, H5N1, MDCK
Flu B = assay: microbe, parasite or virus in culture; format: cell-based, influenza B virus; conditions: Influenza B virus, MDCK
Parainfluenza virus 3 = assay: organism not typed; format: cell-based
EBOV = assay: microbe, parasite or virus in culture; format: cell-based, Ebola virus; conditions: Zaire ebolavirus, Vero
Marburg virus = assay: microbe, parasite or virus in culture; format: cell-based; conditions: Filoviridae, Vero
ZIKV = assay: microbe, parasite or virus in culture; format: cell-based, Zika virus; conditions: Zika virus, Vero 76
DENV2 = assay: microbe, parasite or virus in culture; format: cell-based, Dengue virus 2; conditions: Dengue virus, DENV2, Huh-7
Enterovirus-68 = assay: microbe, parasite or virus in culture; format: cell-based, EV-D68
HRV-14 = assay: microbe, parasite or virus in culture; format: cell-based, human rhinovirus
Murine Norovirus = assay: microbe, parasite or virus in culture; format: cell-based; conditions: Norwalk virus, RAW264.7
Human Norovirus = assay: microbe, parasite or virus in culture; format: cell-based; conditions: HG23
CEM = assay: EIDD-2749 cytotoxicity; format: cell-based; conditions: CEM cells
Huh-7 = assay: EIDD-2749 cytotoxicity; format: cell-based, human; conditions: Huh-7 cells
A-204 = assay: EIDD-2749 cytotoxicity; format: cell-based; conditions: A-204 cells
A549 = assay: EIDD-2749 cytotoxicity; format: cell-based; conditions: A549 cells
BxPc3 = assay: EIDD-2749 cytotoxicity; format: cell-based; conditions: BxPc3 cells
H9c-2 = assay: EIDD-2749 cytotoxicity; format: cell-based; conditions: H9c-2 cells
IEC-6 = assay: EIDD-2749 cytotoxicity; format: cell-based; conditions: IEC-6 cells
Vero = assay: EIDD-2749 cytotoxicity; format: cell-based, African green monkey; conditions: Vero cells
Vero cells = conditions: African green monkey
Vero E6 cells = conditions: African green monkey
MDCK cells = conditions: dog
MA-104 cells = conditions: African green monkey
RD cells = conditions: human
Huh-7 cells = conditions: human
[3] = CD-1, mouse, microsomes
[4] = male, Sprague-Dawley, rat, microsomes, pH 7.4
Plasma stability = conditions: mouse plasma, drug 1.00 μM
HG23 cells = assay: Cytotoxicity (CC50) run with the norovirus assay
[5] = Mammarenavirus tacaribeense, Vero

SMILES: O=c1ccn([C@@H]2O[C@](F)(CO)[C@@H](O)[C@H]2O)c(=O)[nH]1 [EIDD-2749, 4′-fluorouridine]
- EC90 (VEEV; Vero 76): 213 µM
- pEC50 (VEEV; Vero 76, VEEV strain TC-83, Vero 76 cells): 5.12
- pEC50 (EEEV; EEEV strain FL93-939, Vero76 cells): < 3.42
- pEC50 (EEEV; Eastern equine encephalitis virus, Vero 76, EEEV strain FL93-939, Vero76 cells): 3.42
- EC90 (Heartland virus): 122 µM
- pEC50 (La Crosse virus): > 6.42
- pEC50 (Marpol virus): 4.24
- pEC50 (Marpol virus; Vero C1008): 4.02
- pEC50 (Punta Toro virus): 4.04
- pEC50 (Punta Toro virus; Punta Toro virus, Vero 76): 4.14
- EC90 [1]: > 380 µM
- pEC50 (Lassa fever virus): 6.42
- EC90 (Lassa fever virus): 9 µM
- pEC50 (Junin virus): 5.89
- EC90 (Junin virus; Mammarenavirus juninense, Vero): 0.38 µM
- pEC50 (Junin virus; Mammarenavirus juninense, Vero): 5.73
- EC90 [2]: 7.22 µM
- EC90 (Pichinde virus): 0.19 µM
- EC90 (Tacaribe virus; [5]): 0.87 µM
- pEC50 (Tacaribe virus; [5]): > 6.42
- pEC50 (Tacaribe virus): 6.47
- pEC50 (Influenza A H1N1): > 6.42
- pEC50 (Flu A H3N2): > 6.42
- pEC50 (Flu A H5N1 (Low Path)): > 6.42
- pEC50 (Flu B): > 6.42
- pEC50 (Parainfluenza virus 3): 4.22
- pEC50 (Parainfluenza virus 3; MA104): 4.01
- pEC50 (EBOV): 5.82
- EC90 (EBOV): 22 µM
- pEC50 (Marburg virus): < 3.42
- EC90 (ZIKV): > 380 µM
- pEC50 (DENV2): < 3.42
- pEC50 (Enterovirus-68): 4.93
- pEC50 (Enterovirus-68; Enterovirus D, RD): 4.86
- pEC50 (HRV-14): 5.94
- pEC50 (HRV-14; Rhinovirus B, HRV14): 5.91
- pEC50 (Murine Norovirus): 5.66
- EC90 (Murine Norovirus): 7.2 µM
- pEC50 (Human Norovirus): 5.57
- EC90 (Human Norovirus): 9.3 µM
- CC50 (CEM): 107 µM
- CC50 (Huh-7): > 400 µM
- CC50 (A-204): > 400 µM
- CC50 (A549): > 400 µM
- CC50 (BxPc3): > 400 µM
- CC50 (H9c-2): > 400 µM
- CC50 (IEC-6): 372 µM
- CC50 (Vero): > 400 µM
- CC50 (Vero cells): > 380 µM
- CC50 (Vero E6 cells): > 380 µM
- CC50 (MDCK cells): > 380 µM
- CC50 (MA-104 cells): > 380 µM
- CC50 (RD cells): > 380 µM
- CC50 (Huh-7 cells): > 380 µM
- half-life [3]: 27 min
- half-life [4]: 25 min
- half-life (Plasma stability): 37 min
- CC50 (HG23 cells): 100 µM
